Measured values published in patent US20230150970A1, “AMINOPYRIMIDINE DERIVATIVES AND THEIR USE AS ARYL HYDROCARBON RECEPTOR MODULATORS” (DONG-A ST CO., LTD., priority 2020, published 2023).

These compounds were tested against T1, AhR (Homo sapiens, UniProt P35869) (assay: In Vitro Assay 1: XRE-luciferase reporter assay, antagonism in human cell line (HepG2)). Settings: Assay 1: AhR-Luc Human Antagonism (IC50, nM), values marked *: kynurenine 50 μM, 6 hours.
T1 sequence (P35869 11-848): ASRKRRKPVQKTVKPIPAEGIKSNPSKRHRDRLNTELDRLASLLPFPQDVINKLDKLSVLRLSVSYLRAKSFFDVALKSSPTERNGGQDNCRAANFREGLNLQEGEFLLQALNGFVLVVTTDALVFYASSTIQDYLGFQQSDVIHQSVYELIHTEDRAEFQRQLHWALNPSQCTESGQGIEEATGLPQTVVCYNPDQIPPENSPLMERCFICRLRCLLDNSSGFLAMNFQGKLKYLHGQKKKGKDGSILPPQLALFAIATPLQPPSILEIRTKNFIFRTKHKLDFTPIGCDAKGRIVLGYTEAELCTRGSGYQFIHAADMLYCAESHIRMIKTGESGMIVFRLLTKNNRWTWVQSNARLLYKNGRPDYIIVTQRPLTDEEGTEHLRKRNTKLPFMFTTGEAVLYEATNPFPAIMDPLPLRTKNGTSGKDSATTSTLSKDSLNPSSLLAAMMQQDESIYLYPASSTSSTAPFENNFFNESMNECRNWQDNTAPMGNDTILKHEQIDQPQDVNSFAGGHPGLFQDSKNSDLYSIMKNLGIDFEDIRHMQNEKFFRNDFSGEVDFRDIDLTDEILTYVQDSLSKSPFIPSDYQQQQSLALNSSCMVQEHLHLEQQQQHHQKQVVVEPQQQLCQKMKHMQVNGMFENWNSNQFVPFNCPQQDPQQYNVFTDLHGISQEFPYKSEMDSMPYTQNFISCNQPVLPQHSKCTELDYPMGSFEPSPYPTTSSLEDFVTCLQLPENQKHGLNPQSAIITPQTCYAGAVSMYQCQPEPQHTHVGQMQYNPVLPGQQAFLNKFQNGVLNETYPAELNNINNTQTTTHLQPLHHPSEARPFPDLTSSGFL

Structure (SMILES)	IC50 [nM]
O[C@@H]1CCC[C@H]1Nc1cc(-c2ccc(Cl)cc2)nc(-c2cccnc2)n1 [Example 29, (1R,2R)-2-((6-(4-chlorophenyl)-2-(pyridin-3-yl)pyrimidin-4-yl)amino)cyclopentan-1-ol]	10 to 100
O[C@H]1CCC[C@H]1Nc1cc(-c2ccc(Cl)cc2)nc(-c2cccnc2)n1 [Example 30, (1S,2R)-2-((6-(4-chlorophenyl)-2-(pyridin-3-yl)pyrimidin-4-yl)amino)cyclopentan-1-ol]	10 to 100
Clc1ccc(-c2cc(NCc3ccccn3)nc(-c3cccnc3)n2)cc1 [Example 31, 6-(4-chlorophenyl)-N-(pyridin-2-ylmethyl)-2-(pyridin-3-yl)pyrimidin-4-amine]	100 to 1000
Clc1ccc(-c2cc(NCc3cccnc3)nc(-c3cccnc3)n2)cc1 [Example 32, 6-(4-chlorophenyl)-2-(pyridin-3-yl)-N-(pyridin-3-ylmethyl)pyrimidin-4-amine]	100 to 1000
Clc1ccc(-c2cc(NCc3ccncc3)nc(-c3cccnc3)n2)cc1 [Example 33, 6-(4-chlorophenyl)-2-(pyridin-3-yl)-N-(pyridin-4-ylmethyl)pyrimidin-4-amine]	100 to 1000
O[C@H]1CC[C@H](Nc2cc(-c3ccc(Cl)cc3)nc(-c3cccnc3)n2)CC1 [Example 34, trans-4-((6-(4-chlorophenyl)-2-(pyridin-3-yl)pyrimidin-4-yl)amino)cyclohexan-1-ol]	10 to 100
COC1CCN(c2cc(-c3ccc(Cl)cc3)nc(-c3cccnc3)n2)CC1 [Example 45, 4-(4-chlorophenyl)-6-(4-methoxypiperidin-1-yl)-2-(pyridin-3-yl)pyrimidine]	10 to 100
CC1CC(C)CN(c2cc(-c3ccc(Cl)cc3)nc(-c3cccnc3)n2)C1 (centres unmarked) [Example 50, 4-(4-chlorophenyl)-6-(3,5-dimethylpiperidin-1-yl)-2-(pyridin-3-yl)pyrimidine]	> 1000
FC1(F)CCCN(c2cc(-c3ccc(Cl)cc3)nc(-c3cccnc3)n2)C1 [Example 51, 4-(4-chlorophenyl)-6-(3,3-difluoropiperidin-1-yl)-2-(pyridin-3-yl)pyrimidine]	100 to 1000
FC(F)(F)C1CCCN(c2cc(-c3ccc(Cl)cc3)nc(-c3cccnc3)n2)C1 (centres unmarked) [Example 52, 4-(4-chlorophenyl)-2-(pyridin-3-yl)-6-(3-(trifluoromethyl)piperidin-1-yl)pyrimidine]	100 to 1000
Clc1ccc(-c2cc(NC3CCNCC3)nc(-c3cccnc3)n2)cc1 [Example 54, 6-(4-chlorophenyl)-N-(piperidin-4-yl)-2-(pyridin-3-yl)pyrimidin-4-amine]	> 1000
Clc1ccc(-c2cc(NCC3CCCNC3)nc(-c3cccnc3)n2)cc1 (centres unmarked) [Example 55, 6-(4-chlorophenyl)-N-(piperidin-3-ylmethyl)-2-(pyridin-3-yl)pyrimidin-4-amine]	> 1000
Clc1ccc(-c2cc(NCC3CCNCC3)nc(-c3cccnc3)n2)cc1 [Example 56, 6-(4-chlorophenyl)-N-(piperidin-4-ylmethyl)-2-(pyridin-3-yl)pyrimidin-4-amine]	100 to 1000
CN1CCC(Nc2cc(-c3ccc(Cl)cc3)nc(-c3cccnc3)n2)CC1 [Example 57, 6-(4-chlorophenyl)-N-(1-methylpiperidin-4-yl)-2-(pyridin-3-yl)pyrimidin-4-amine]	> 1000
Clc1ccc(-c2cc(NCCC3CCNCC3)nc(-c3cccnc3)n2)cc1 [Example 58, 6-(4-chlorophenyl)-N-(2-(piperidin-4-yl)ethyl)-2-(pyridin-3-yl)pyrimidin-4-amine]	> 1000
O[C@@H]1CCC[C@@H]1Nc1cc(-c2ccc(Cl)cc2)nc(-c2cccnc2)n1 [Example 66, (1R,2S)-2-((6-(4-chlorophenyl)-2-(pyridin-3-yl)pyrimidin-4-yl)amino)cyclopentan-1-ol]	> 1000
O[C@H]1CCC[C@@H]1Nc1cc(-c2ccc(Cl)cc2)nc(-c2cccnc2)n1 [Example 67, (1S,2S)-2-((6-(4-chlorophenyl)-2-(pyridin-3-yl)pyrimidin-4-yl)amino)cyclopentan-1-ol]	100 to 1000
O[C@@H]1CCCC[C@H]1Nc1cc(-c2ccc(Cl)cc2)nc(-c2cccnc2)n1 [Example 69, (1R,2R)-2-((6-(4-chlorophenyl)-2-(pyridin-3-yl)pyrimidin-4-yl)amino)cyclohexan-1-ol]	100 to 1000

Second part, the compound after the results:

IC50 [nM]	Structure (SMILES)
10 to 100	OCC1CCCCN1c1cc(-c2ccc(Cl)cc2)nc(-c2cccnc2)n1 (centres unmarked) [Example 36, (1-(6-(4-chlorophenyl)-2-(pyridin-3-yl)pyrimidin-4-yl)piperidin-2-yl)methanol]
> 1000	OCCC1CCCCN1c1cc(-c2ccc(Cl)cc2)nc(-c2cccnc2)n1 (centres unmarked) [Example 37, 2-(1-(6-(4-chlorophenyl)-2-(pyridin-3-yl)pyrimidin-4-yl)piperidin-2-yl)ethan-1-ol]
< 10	O[C@@H]1CCCN(c2cc(-c3ccc(Cl)cc3)nc(-c3cccnc3)n2)C1 [Example 38, (R)-1-(6-(4-chlorophenyl)-2-(pyridin-3-yl)pyrimidin-4-yl)piperidin-3-ol]
10 to 100	OC1CCCN(c2cc(-c3ccc(Cl)cc3)nc(-c3cccnc3)n2)C1 (centres unmarked) [Example 39, 1-(6-(4-chlorophenyl)-2-(pyridin-3-yl)pyrimidin-4-yl)piperidin-3-ol]
10 to 100	OCC1CCCN(c2cc(-c3ccc(Cl)cc3)nc(-c3cccnc3)n2)C1 (centres unmarked) [Example 40, (1-(6-(4-chlorophenyl)-2-(pyridin-3-yl)pyrimidin-4-yl)piperidin-3-yl)methanol]
< 10	OC1CCN(c2cc(-c3ccc(Cl)cc3)nc(-c3cccnc3)n2)CC1 [Example 41, 1-(6-(4-chlorophenyl)-2-(pyridin-3-yl)pyrimidin-4-yl)piperidin-4-ol]
< 10	OCCCC1CCN(c2cc(-c3ccc(Cl)cc3)nc(-c3cccnc3)n2)CC1 [Example 44, 3-(1-(6-(4-chlorophenyl)-2-(pyridin-3-yl)pyrimidin-4-yl)piperidin-4-yl)propan-1-ol]
100 to 1000	Clc1ccc(-c2cc(N3CCCCC3)nc(-c3cccnc3)n2)cc1 [Example 46, 4-(4-chlorophenyl)-6-(piperidin-1-yl)-2-(pyridin-3-yl)pyrimidine]
> 1000	CC1CCCCN1c1cc(-c2ccc(Cl)cc2)nc(-c2cccnc2)n1 (centres unmarked) [Example 47, 4-(4-chlorophenyl)-6-(2-methylpiperidin-1-yl)-2-(pyridin-3-yl)pyrimidine]
> 1000	CC1CCCN(c2cc(-c3ccc(Cl)cc3)nc(-c3cccnc3)n2)C1 (centres unmarked) [Example 48, 4-(4-chlorophenyl)-6-(3-methylpiperidin-1-yl)-2-(pyridin-3-yl)pyrimidine]
> 1000	CC1CCCC(C)N1c1cc(-c2ccc(Cl)cc2)nc(-c2cccnc2)n1 (centres unmarked) [Example 49, 4-(4-chlorophenyl)-6-(2,6-dimethylpiperidin-1-yl)-2-(pyridin-3-yl)pyrimidine]
> 1000	CCC1CCCN(c2cc(-c3ccc(Cl)cc3)nc(-c3cccnc3)n2)C1 (centres unmarked) [Example 53, 4-(4-chlorophenyl)-6-(3-ethylpiperidin-1-yl)-2-(pyridin-3-yl)pyrimidine]
> 1000	NCC1CCCCN1c1cc(-c2ccc(Cl)cc2)nc(-c2cccnc2)n1 (centres unmarked) [Example 59, (1-(6-(4-chlorophenyl)-2-(pyridin-3-yl)pyrimidin-4-yl)piperidin-2-yl)methanamine]
> 1000	N[C@@H]1CCCN(c2cc(-c3ccc(Cl)cc3)nc(-c3cccnc3)n2)C1 [Example 60, (R)-1-(6-(4-chlorophenyl)-2-(pyridin-3-yl)pyrimidin-4-yl)piperidin-3-amine]
> 1000	N[C@H]1CCCN(c2cc(-c3ccc(Cl)cc3)nc(-c3cccnc3)n2)C1 [Example 61, (S)-1-(6-(4-chlorophenyl)-2-(pyridin-3-yl)pyrimidin-4-yl)piperidin-3-amine]
> 1000	NCC1CCCN(c2cc(-c3ccc(Cl)cc3)nc(-c3cccnc3)n2)C1 (centres unmarked) [Example 62, (1-(6-(4-chlorophenyl)-2-(pyridin-3-yl)pyrimidin-4-yl)piperidin-3-yl)methanamine]
> 1000	NC[C@@H]1CCCN(c2cc(-c3ccc(Cl)cc3)nc(-c3cccnc3)n2)C1 [Example 63, (S)-(1-(6-(4-chlorophenyl)-2-(pyridin-3-yl)pyrimidin-4-yl)piperidin-3-yl)methanamine]
100 to 1000	NC1CCN(c2cc(-c3ccc(Cl)cc3)nc(-c3cccnc3)n2)CC1 [Example 64, 1-(6-(4-chlorophenyl)-2-(pyridin-3-yl)pyrimidin-4-yl)piperidin-4-amine]
100 to 1000	NCC1CCN(c2cc(-c3ccc(Cl)cc3)nc(-c3cccnc3)n2)CC1 [Example 65, (1-(6-(4-chlorophenyl)-2-(pyridin-3-yl)pyrimidin-4-yl)piperidin-4-yl)methanamine]
10 to 100	Clc1ccc(-c2cc(N3CCOCC3)nc(-c3cccnc3)n2)cc1 [Example 71, 4-(6-(4-chlorophenyl)-2-(pyridin-3-yl)pyrimidin-4-yl)morpholine]
